Assay results as given in patent publication US12233161B1, “Lipids and lipid nanoparticle formulations” (LONGUIDE BIOPHARMA CORPORATION, priority 2024, dated 2025).

Columns and labels:
[1] = Particle size and PDI of nucleic acid lipid nanoparticle preparations by dynamic light scattering; assay type: physicochemical
Method in brief: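 LNP solution (about 0.04 mg/mL mRNA before dilution) was diluted in ultrapure water and mixed by gentle pipetting. Particle size and PDI were then measured by dynamic light scattering.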

mice [2] = assay: In vivo delivery of FLuc-mRNA lipid nanoparticles in mice, in vivo imaging (IVIS)
Method in brief: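 Mice (n=3) received about 75 μL FLuc-mRNA LNP per mouse intramuscularly (rectus femoris), intravenously (tail vein), intraperitoneally or subcutaneously (back). After injection, D-luciferin (200 μL, 15 mg/mL) was given i.p. 10-15 min before IVIS imaging.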

[3] = Potential characterization of nucleic acid lipid nanoparticle preparations; assay type: physicochemical
Method in brief: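 Zeta potential was read on a Malvern ZEN3700 after diluting 20 μL lipid nanoparticle solution (about 0.04 mg/mL mRNA) into 780 μL ultrapure water. Alternatively, a 27.5 μL sample in 200 μL water was first sized by dynamic light scattering, then diluted with 600 μL more water for potential measurement.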

mice [4] = assay: In vivo delivery of FLuc-circ-RNA lipid nanoparticles in mice; settings: Fluc-circ-RNA LNP, IV
Procedure: Lipid nanoparticles loaded with nucleic acid drugs were prepared according to step 2, replacing FLuc-mRNA with FLuc-circ-RNA (Hongene Biotech Corporation, Shanghai). After formulation, the nanoparticles were administered via intramuscular injection (into the quadriceps femoris muscle of mice), intravenous injection (into the tail vein of mice), intraperitoneal injection, or subcutaneous injection (subcutaneously on the back). Approximately 75 μL was injected per mouse, with a total of 3 mice per group. In vivo imaging (PerkinElmer, IVIS Lumina III) was performed after a certain period of time. Ten to fifteen minutes before imaging, 200 μL of a 15 mg/mL D-Luciferin working solution was injected intraperitoneally, followed by imaging analysis using the in vivo imaging system.

[5] = DMG-PEG2000:DSPC:Chol:Lipid 1.40:11.15:38.95:48.50, N/P 30, mRNA LNP
[6] = DMG-PEG2000:DSPC:Chol:Lipid 4.00:8.00:58.00:30.00, N/P 36, mRNA LNP
[7] = DMG-PEG2000:DSPC:Chol:compound 1.00:10.00:33.00:56.00, N/P 48
[8] = Fluc-circ-RNA LNP, preparation given IV
[9] = DMG-PEG2000:DSPC:Chol:Lipid 1.40:11.15:38.95:48.50, N/P 30, IV, liver
[10] = DMG-PEG2000:DSPC:Chol:Lipid 1.40:11.15:38.95:48.50, N/P 30, IV, lung
[11] = DMG-PEG2000:DSPC:Chol:Lipid 1.40:11.15:38.95:48.50, N/P 30, IV, spleen
[12] = DMG-PEG2000:DSPC:Chol:Lipid 4.00:8.00:58.00:30.00, N/P 36, IV, liver
[13] = DMG-PEG2000:DSPC:Chol:Lipid 4.00:8.00:58.00:30.00, N/P 36, IV, lung
[14] = DMG-PEG2000:DSPC:Chol:Lipid 4.00:8.00:58.00:30.00, N/P 36, IV, spleen

PDI [1, 5]: 0.13 ± 0.01
Particle size [1, 5]: 118.73 ± 0.90 nm
PDI [1, 6]: 0.11 ± 0.01
Particle size [1, 6]: 104.43 ± 0.96 nm
PDI [1, 7]: 0.14
Particle size (nm) [1, 7]: 138.90 nm
PDI [1, 8]: 0.19
Particle size (nm) [1, 8]: 152.1 nm
Zeta potential (mV) [3, 7]: 14.67 mV
Zeta potential (mV) [3, 8]: 16.27 mV
SMILES: CCCCCCCCCCCCNC(=O)C(O)CN(CCCN(CCO)CCCN(CC(O)C(=O)NCCCCCCCCCCCC)CC(O)C(=O)NCCCCCCCCCCCC)CC(O)C(=O)NCCCCCCCCCCCC (stereo not shown) [Compound L0281]
IVIS (mice [2]; DMG-PEG2000:DSPC:Chol:Lipid 1.40:11.15:38.95:48.50, N/P 30, IM, whole body scan): 1.38 × 10^6
IVIS (mice [2]; DMG-PEG2000:DSPC:Chol:Lipid 1.40:11.15:38.95:48.50, N/P 30, IV, body (whole body scan)): 6.41 × 10^7
% of organ targeting (mice [2]; [9]): 1.91%
IVIS (mice [2]; [9]): 3.17 × 10^6
% of organ targeting (mice [2]; [10]): 93.34%
IVIS (mice [2]; [10]): 1.55 × 10^8
% of organ targeting (mice [2]; [11]): 4.75%
IVIS (mice [2]; [11]): 7.89 × 10^6
IVIS (mice [2]; DMG-PEG2000:DSPC:Chol:Lipid 4.00:8.00:58.00:30.00, N/P 36, IV, body): 7.07 × 10^7
% of organ targeting (mice [2]; [12]): 21.21%
IVIS (mice [2]; [12]): 1.28 × 10^7
% of organ targeting (mice [2]; [13]): 1.08%
IVIS (mice [2]; [13]): 6.52 × 10^5
% of organ targeting (mice [2]; [14]): 77.71%
IVIS (mice [2]; [14]): 4.68 × 10^7
IVIS (mice [2]; IV, body, DMG-PEG2000:DSPC:Chol:compound 1.00:10.00:33.00:56.00, N/P 48, Fluc-mRNA): 4.66E+08
% of organ targeting (mice [2]; IV, liver, DMG-PEG2000:DSPC:Chol:compound 1.00:10.00:33.00:56.00, N/P 48): 0.73%
IVIS (mice [2]; IV, liver, DMG-PEG2000:DSPC:Chol:compound 1.00:10.00:33.00:56.00, N/P 48, Fluc-mRNA): 7.58E+06
% of organ targeting (mice [2]; IV, lung, DMG-PEG2000:DSPC:Chol:compound 1.00:10.00:33.00:56.00, N/P 48): 97.70%
IVIS (mice [2]; IV, lung, DMG-PEG2000:DSPC:Chol:compound 1.00:10.00:33.00:56.00, N/P 48, Fluc-mRNA): 1.02E+09
% of organ targeting (mice [2]; IV, spleen, DMG-PEG2000:DSPC:Chol:compound 1.00:10.00:33.00:56.00, N/P 48): 1.57%
IVIS (mice [2]; IV, spleen, DMG-PEG2000:DSPC:Chol:compound 1.00:10.00:33.00:56.00, N/P 48, Fluc-mRNA): 1.64E+07
in vivo delivery efficiency as compared to the benchmark compound SM102 (mice [2]; certain formulations, Table 2): superior in vivo delivery efficiency
tissue-targeting specificity (lung vs spleen depending on molar percentage of compound) (mice [2]; certain formulations, Table 2): strong tissue-targeting specificity
% of organ targeting (mice [4]; liver): 0.74%
% of organ targeting (mice [4]; lung): 96.58%
% of organ targeting (mice [4]; spleen): 2.68%
